Measured values taken from PMC10223284, “Category-Based Toxicokinetic Evaluations of Data-Poor Per- and Polyfluoroalkyl Substances (PFAS) using Gas Chromatography Coupled with Mass Spectrometry” (Toxics, 2023).
“And” between values parts separate entries of the source, which are not always exact repeats. Identical values can stand only once. Like-named read-outs stand apart in the source and are kept apart here.

Columns and labels:
[1] = In vitro-in vivo extrapolation (IVIVE) to Css and administered equivalent dose (AED); design: species or system human; details: for Clhep: IVIVE, hepatocyte Clint scaled to whole-liver clearance; for AED: administered equivalent dose from LOEC and Css; for Fub: fub=fup/(B:P), Fub set to 1 if needed; for CLint: scaled with HPGL 110 mill cells/g, Vl 1596 g
Summary of the method: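 Measured plasma protein binding (fup) and hepatocyte Clint served as IVIVE inputs to estimate human steady-state plasma concentration (Css). fup was converted to blood unbound fraction using blood:plasma partitioning, and Clint was scaled to whole-liver clearance (L/h). AEDs were derived by combining Css with published in vitro lowest-observed effective concentrations.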

[2] = Hepatic metabolic stability (hepatocyte clearance) assay, substrate depletion; type: in vitro ADME, human; details: both sexes, human
Summary of the method: (§1)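 Pooled 50-donor human cryopreserved hepatocytes (50,000 cells/100 μL) incubated with 1 μM compound at 37 °C with shaking. Parent loss quantified against internal standards over time to T240 in triplicate; T½ and Clint (μL/min/million cells) from ln concentration vs time, corrected for abiotic loss in cell-free and inactivated-hepatocyte controls.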

[3] = test system: pooled human cryopreserved primary hepatocyte suspensions; assay: as above; type: in vitro ADME
Summary of the method: as §1

human plasma [4] = details: for Fup.Med / Fup.point: both, human, 5 h, 10 μM
in vitro [5] = details: both, human, plasma
human plasma [6] = details: for PPB_Stab_Fail: plasma
[7] = Abiotic loss in negative controls of the hepatocyte clearance assay (cell-free media, metabolically inactivated hepatocytes); type: in vitro ADME
Summary of the method: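 Test compound at 1 μM incubated at 37 °C with shaking in complete William's medium E, either cell-free or with metabolically inactivated hepatocytes, then quenched with ice-cold acetonitrile for quantitative analysis.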

human primary cells = details: cited from earlier work
in vitro [8] = details: both, human, plasma; remark: listed apart in the source
[9] = Chemical stability in plasma over the UC assay time course (T5hr/T1hr); details: both, human, plasma
human plasma [10] = assay: as above; details: for PPB_Stab_Fail: flag for stability failure in the plasma protein binding assay (1 = fail, 0 = pass); for Fstable.Med: median fraction stable in plasma, UC assay Level4
[11] = Ultracentrifugation (UC) plasma protein binding assay, fraction unbound in plasma (fup); details: both, human, plasma
human plasma [12] = assay: as above; details: for Fup.Med: median fraction unbound in plasma; for Fup.Med / Fup.point: UC assay Level4; for Fup.point: point estimate of fraction unbound in plasma; for Mean fu: fraction unbound in human plasma, used for IVIVE
[13] = test system: pooled human cryopreserved primary hepatocyte suspensions; details: cited from earlier work
human plasma [14] = details: cited from earlier work
[15] = Assuming 1 mg/kg/day dose rate, BW 70 kg
[16] = human steady-state plasma concentration, assuming 1 mg/kg/day dosage
[17] = BioSeek lowest-observed effect concentration used for AED
[18] = minimum lowest-observed effect concentration, BioSeek platform
[19] = flag for stability failure in hepatocyte clearance assay controls (1 or Fst = fail, 0 = pass)
[20] = legacy PFAS included for comparison

In the case of OCC(F)(F)OC(F)(F)C(F)(F)OC(F)(F)C(F)(F)OC(F)(F)CO [1H,1H,11H,11H-Perfluorotetraethylene glycol], the Css [1, 15] is reported as 0.61 mg/L and 1.50 uM, the Clhep [1] is reported as 4.634 L/h and the AED [1] is reported as 1.3364 mg/kg/day. It also gave a Fub [1] of 0.02327, a Css [1, 16] of 1.50 µM and a CLint [1] of 3498911 µL/min. For the same compound, the half-life at 1 μM ([2]; hepatocytes) was 0.951 h, the hepatocyte CLint at 1 μM ([2]; hepatocytes, Bkgd-Sub Clearance (µL/min/106 hepatocytes)) was 19.9 µL/min/1e6 cells and the hepatocyte CLint at 1 μM ([2]; hepatocytes, In Vitro Clint) was 19.9 µL/min/1e6 cells. It also gave a hepatocyte CLint at 1 μM ([2]; hepatocytes, Linear Regression Results, Best-Fit Values, Clearance) of 24.3 µL/min/1e6 cells, a hepatocyte CLint at 1 μM ([2]; hepatocytes, Unadj Clint) of 24.3 µL/min/1e6 cells and a hepatocyte CLint at 1 μM ([2]; hepatocytes, Unadj in vitro Clint) of 24.3 µL/min/1e6 cells. For the same compound, the hepatocyte CLint at 1 μM ([2]; hepatocytes, clearance rate in hepatocytes) was 20 µL/min/1e6 cells, the hepatocyte CLint at 1 μM ([2]; s9, Clint.1.Med) was 5.23 µL/min/1e6 cells and the “Concentration (nM), Time 240 min” value ([3]; both, human, 240 min, 1 μM) was 88.3883 nM. The “Linear Regression Results, Best-Fit Values, Slope” value ([3]; hepatocyte time course) was -0.01215, the Fup.Med (human plasma [4]) was 0.0115 and the Fup.point (human plasma [4]) was 0.0127. The fraction unbound at 5 h, 10 μM (in vitro [5]; Fraction Unbound (fu), replicates A, B, C) was 0.0147, the fraction unbound at 5 h, 10 μM (in vitro [5]; Mean Fu) was 0.013 and the fraction unbound at 5 h, 10 μM (in vitro [5]; Mean fu) was 0.0128. For the same compound, the Fstable.Med (human plasma [6]; both, human, 5 h, 10 μM) was 0.989, the “Mean Stability” value (human plasma [6]; both, human, 5 h, 10 μM) was 1.051 and the “Stability (T5hr/ T1hr), Run-specific Avg” value (human plasma [6]; both, human, 5 h, 10 μM) was 0.998. The PPB_Stab_Fail (human plasma [6]; both, human, 5 h, 10 μM) was 0, the “No Cells BkgdCl, Clearance” value ([7]; 1 μM) was 4.374 and the half-life at 1 μM ([7]; both sexes, human, hepatocytes) was 4.08 h. The “HT BkgdCl, Clearance” value ([7]; both, human, 1 μM) was 5.666, the Hep_Stab_Fail ([7]; both, human, 120 min, 1 μM) was 0 and the half-life at 1 μM ([7]; buffer) was 5.28 h. For the same compound, the “HT BkgdCl, Slope” value ([7]; heat treated hepatocytes control, 0 vs 240 min) was -0.002833, the “No Cells BkgdCl, Slope” value ([7]; no cells control, 0 vs 240 min) was -0.002187 and the LOEC (human primary cells; [17]) was 2.00 µM. For the same compound, the LOEC (human primary cells; [18]) was 2 µM.

For C=CC(=O)OCC(F)(F)C(F)F [2,2,3,3-Tetrafluoropropyl acrylate], the remaining at 5 h, 10 μM (in vitro [8]) was 0%, the Uncertain (human plasma [4]) was “Y” and the Fup.Med (human plasma [4]) was 1.93E-08. For the same compound, the Fup.point (human plasma [4]) was 0.234, the Unstable (human plasma [6]) was “Y” and the Fstable.Med (human plasma [6]; both, human, 5 h, 10 μM) was 0.000712. For the same compound, the PPB_Stab_Fail (human plasma [6]; both, human, 5 h, 10 μM) was 1 and the Hep_Stab_Fail ([7]; both, human, 120 min, 1 μM) was 1.

With NC(O)(C(F)(F)F)C(F)(F)F [2-Aminohexafluoropropan-2-ol] the remaining at 5 h, 10 μM [9] was 76%, the “Stability (T5hr/ T1hr), Run-specific Avg” value (human plasma [10]; average of one UC run (run date in line above)) was 0.77 and 0.751 and the PPB_Stab_Fail (human plasma [10]) was 0. For the same compound, the “Mean Stability” value (human plasma [10]; mean T5hr/T1hr ratio over all replicates and runs, plasma) was 0.76, the Fstable.Med (human plasma [10]) was 0.225 and the “Stability (T5hr/ T1hr), replicates A, B, C” value (human plasma [10]; single replicate of one UC run) was 0.60 and 0.78 and 0.93 and 0.61 and 0.77 and 0.88. The Hep_Stab_Fail [7, 19] was 1, the fraction unbound at 5 h, 10 μM ([11]; Fraction Unbound (fu), Run-specific Avg, average of one UC run (run date in line above)) was 0.993 and the fraction unbound at 5 h, 10 μM ([11]; Fraction Unbound (fu), replicates A, B, C, single replicate of one UC run (aqueous fraction / Time 5 hr)) was 1. For the same compound, the fup (human plasma [12]; human plasma, 10 μM, ultracentrifugation, 37 °C) was 1, the Fup.Med (human plasma [12]) was 0.867 and the Fup.point (human plasma [12]) was 0.963. For the same compound, the “Fraction Unbound (fu), replicates A, B, C” value (human plasma [12]; single replicate of one UC run (aqueous fraction / Time 5 hr)) was 0.90 and 0.77 and 0.85.

For FC(F)(F)C(F)(C(F)(F)F)C(F)(F)C(F)(F)CC1CO1 (stereo not drawn) [3-(Perfluoro-3-methylbutyl)-1,2-propenoxide], the remaining at 5 h, 10 μM (in vitro [8]) was 0%, the PPB_Stab_Fail (human plasma [6]; both, human, 5 h, 10 μM) was 1 and the Hep_Stab_Fail ([7]; both, human, 120 min, 1 μM) was 1.

In the case of Cc1ccc([N+](=O)[O-])cc1 [4-Nitrotoluene, 4-nitrotoluene, reference compound], the “Mean Stability (T5hr/T1hr)” value (human plasma [10]; mean over all UC runs and replicates, human plasma) is reported as 0.816, the Fstable.Med (human plasma [10]) is reported as 0.779 and the “Stability (T5hr/ T1hr), Run-specific Avg” value (human plasma [10]; run-specific average) is reported as 0.82 and 0.84 and 0.81 and 0.78. It also gave a fraction unbound at 5 h, 10 μM ([11]; Fraction Unbound (fu), Run-specific Avg, run-specific average) of 0.06, a fraction unbound at 5 h, 10 μM ([11]; Mean Fu (fraction unbound), mean over all UC runs and replicates, human plasma) of 0.0581 and a Fup.Med (human plasma [12]) of 0.0679. For the same compound, the Fup.point (human plasma [12]) was 0.0612 and the “Fraction Unbound (fu), Run-specific Avg” value (human plasma [12]; run-specific average) was 0.0534 and 0.08.

In the case of FC(F)C(F)(F)COCC1CO1 (stereo not drawn) [((2,2,3,3-Tetrafluoropropoxy)methyl)oxirane], the remaining at 5 h, 10 μM [9] is reported as 66%, the PPB_Stab_Fail (human plasma [10]) is reported as 0 and the Fstable.Med (human plasma [10]) is reported as 0.531. It also gave a Hep_Stab_Fail [7, 19] of 1, a fraction unbound at 5 h, 10 μM ([11]; Mean fu, fraction unbound in human plasma, ultracentrifugation, some values based on eLOQ) of 0.841 and a Fup.Med (human plasma [12]) of 0.63. For the same compound, the Fup.point (human plasma [12]) was 0.762.

In the case of N.O=C(O)C(F)(F)C(F)(F)C(F)(F)C(F)(F)C(F)(F)C(F)(F)C(F)(F)F [Ammonium perfluorooctanoate (PFOA), Ammonium perfluorooctanoate, reference compound], the Css [1, 15] is reported as 282.38 mg/L and 681.96 uM, the Clhep [1] is reported as 0.003 L/h and the AED [1] is reported as 0.0029 mg/kg/day. The Fub [1] was 0.001091, the Css [1, 16] was 681.96 µM and the Css ([1]; human steady-state plasma concentration, assuming 1 mg/kg/day dosage, listed as PFOA) was 682 µM. For the same compound, the CLint [1] was 47401.2 µL/min, the “In Vitro Clint” value [13, 20] was 0.27 μL/min/10^6 cells and the fup (human plasma [14]; [20]) was 0.0006. The LOEC (human primary cells; [17]) was 2.00 µM, the LOEC (human primary cells; [18]) was 2 µM and the Mean fu (human plasma [12]) was 0.0006.

With NS(=O)(=O)C(F)(F)C(F)(F)C(F)(F)C(F)(F)C(F)(F)C(F)(F)C(F)(F)C(F)(F)F [Perfluorooctanesulfonamide, reference compound] the Css [1, 15] was 3.16 mg/L and 6.33 uM, the Clhep [1] was 0.882 L/h and the AED [1] was 0.3157 mg/kg/day. For the same compound, the Fub [1] was 0.007091, the Css [1, 16] was 6.33 µM and the CLint [1] was 2094431 µL/min. For the same compound, the “In Vitro Clint” value [13] was 11.93 μL/min/10^6 cells, the hepatocyte CLint at 1 μM ([2]; hepatocytes, in vitro CLint) was 11.9 µL/min/1e6 cells and the fraction unbound at 5 h, 10 μM (in vitro [5]; Mean fu) was 0.0039. For the same compound, the fup (human plasma [14]) was 0.0039, the LOEC (human primary cells; [17]) was 2.00 µM and the LOEC (human primary cells; [18]) was 2 µM.

For O=S(=O)([O-])C(F)(F)C(F)(F)C(F)(F)C(F)(F)C(F)(F)C(F)(F)C(F)(F)C(F)(F)F.[K+] [Potassium perfluorooctanesulfonate, reference compound], the Css [1, 15] was 15.71 mg/L and 31.41 uM, the Clhep [1] was 0.138 L/h and the AED [1] was 0.2229 mg/kg/day. It also gave a Fub [1] of 0.007273, a Css [1, 16] of 31.41 µM and a CLint [1] of 317764 µL/min. The “In Vitro Clint” value [13, 20] was 1.81 μL/min/10^6 cells, the fup (human plasma [14]; [20]) was 0.0040 and the LOEC (human primary cells; [17]) was 7.00 µM. The LOEC (human primary cells; [18]) was 7 µM and the Mean fu (human plasma [12]) was 0.004.
